This is an account of results in patent publication US20140011711A1, “MICROARRAY CELL CHIP” (Solidus Biosciences, Inc., priority 2010, published 2014).

For experiment [1], the system named is Hep3B cell. The experiment in a line: Toxicity test of drugs, Hep3B cell cultured in microarray cell chip (3D alginate culture on the chip). It counts as cell-based. Particulars: read-out: IC50 (concentration of drug when 50% of cells shows the growth inhibition), Cell chip according to Invention (3D Hep3B cell culture on the chip); 3D Hep3B cell culture in alginate on the chip; drug cultured for a day; calcein AM / ethidium homodimer-1 staining. The procedure:
The mixture of the alginate-Hep3B cell line primarily combined the upper substrate 100 formed on the spacer with the lower substrate 200 having 800 nl of culture medium in the well 210 to gelate the alginate, thereby removing the extra barium chloride. The upper substrate 100 is separated after removing the extra barium chloride and again combines with the lower substrate 200 having 800 nl of new culture medium in the well 210, thereby culturing the Hep3B cell.
After the culture ends, the Hep3B cell existing on the upper substrate 100 was dyed with the fluorescent material (calcein AM and ethidium homodimer-1).

Experiment [2] concerns Hep3B cell. The experiment in a line: Toxicity test of drugs, Hep3B cell cultured in microtiter plate (2D monolayer in 96-wells). Particulars: read-out: IC50 (concentration of drug when 50% of cells shows the growth inhibition), Microtiter Plate (2D Hep3B cell monolayer in 96-wells), drug cultured for a day. It counts as cell-based. The source says: The values shown in the above Table were obtained based on the results of culturing the drug for a day, dying it immediately after the culturing, and scanning it.

For `CO[C@@]12[C@H](COC(N)=O)C3=C(C(=O)C(C)=C(N)C3=O)N1C[C@@H]1N[C@@H]12` [Mitomycin C], the results for the IC50 with Hep3B cell [1] and in the experiment on Hep3B cell [2] were 124 µM and 40 µM, respectively.

In the case of `O=C(O)Cc1ccccc1Nc1c(Cl)cccc1Cl` [Diclofenac], the IC50 with Hep3B cell [1] is 375 µM; with Hep3B cell [2], 230 µM.

Turning to `CCN(CC)CCCC(C)Nc1ccnc2cc(Cl)ccc12` (stereo not drawn) [Chliroquine, Chloroquine], the IC50 with Hep3B cell [2] stood at 50 µM.

As to `CCN(CC)C(=O)/C(C#N)=C/c1cc(O)c(O)c([N+](=O)[O-])c1` [Entacapone], the IC50 was 381 µM in the experiment with Hep3B cell [1] and 850 µM in the experiment on Hep3B cell [2].

Consider `Cc1ccc(C(=O)c2cc(O)c(O)c([N+](=O)[O-])c2)cc1` [Tolcapone], for which the IC50 in the experiment on Hep3B cell [1] is 171 µM; in the experiment with Hep3B cell [2], 50 µM.
